{
  "source": "patent US20190336555A1",
  "about": "“SYNERGISTIC DIETARY SUPPLEMENT COMPOSITIONS FOR IMPROVING BRAIN HEALTH” (LAILA NUTRACEUTICALS, priority 2016, published 2019)",
  "system": "scopolamine induced memory impairment in Sprague Dawley rats",
  "assay": "Scopolamine induced memory impairment model, Morris Water Maze",
  "assay_type": "in vivo",
  "conditions": "oral, 4 days; LN16026F3 100 mg/kg, Donepezil 10 mg/kg; vs Scopolamine group",
  "protocol": "Twenty four healthy male Sprague Dawley rats were randomized in to four groups. Animals of groups 1 and 2 were treated daily with vehicle (0.5% sodium CMC in water); group 3 with LN16026F3 (100 mg/kg) and group 4 with Donepezil Hydrochloride Monohydrate (10 mg/kg). Dementia was induced by injecting Scopolamine Hydrobromide (0.2 mg/kg) subcutaneously to G2, G3 & G4 groups. G1 group received only 1 mL/kg of normal saline (0.9% w/v sodium chloride) via subcutaneous route.\nThe experiment consists of 4 days of acquisition trials and one probe trial on day 5 i.e. the day after the completion of acquisition trails. Rats were allowed to swim for 120 seconds of 4 trials per day during acquisition trial in water maze to find the hidden platform. Each rat received 4 days of acquisition trials and one probe trial of 180 seconds on day 5. The movement of the animals was tracked by the SMART video tracking system. Memory retention was assessed on day 5 in which each animal received a single 180 seconds probe trial without platform in the pool. Dopamine levels were measured in tissue from hippocampal region of the brain using Elisa kit.",
  "note": "Structures can show the parent of a compound that is named as a salt.",
  "data": [
    {"compound": "COc1cc2c(cc1OC)C(=O)C(CC1CCN(Cc3ccccc3)CC1)C2", "note": "(stereo not shown) [Donepezil, Donepezil Hydrochloride Monohydrate]", "values": [
      {"measurement": "Target latency, Acquisition Trial", "result": "reduction in target latency"}
    ]}
  ]
}
